Patent US20150150159A1, “METHOD FOR CONTROLLING FUNGAL DISEASES IN MUSHROOM PRODUCTION” (DSM IP ASSETS B.V., priority 2012, published 2015)

System: Trichoderma harzianum
Assay: In vitro antifungal activity assay in 96-well microtiter plates (mould growth reduction, Colby synergy)
Assay type: cell-based
Experimental: The following compositions are tested: • Control (no active ingredient), • 1.25 ppm natamycin (DSM Food Specialties, Delft, The Netherlands), • 0.5, 1.0, 1.25 or 1.5 ppm thiabendazole, • 1.25 ppm natamycin+0.5 ppm thiabendazole, • 1.25 ppm natamycin+1.0 ppm thiabendazole, • 1.25 ppm natamycin+1.25 ppm thiabendazole, • 1.25 ppm natamycin+1.5 ppm thiabendazole. […] Subsequently, 100 μl of a Trichoderma harzianum suspension prepared in PCB medium is used to inoculate each well with 5.0×10^3 spores/ml. […] After incubation of the microtiter plates for 3, 5, 10 and 17 days at 25° C., the in vitro antifungal activity (%) of the individual active ingredients was assessed by calculating the reduction in mould growth observed in the presence of the active ingredient in comparison to the mould growth observed in the absence of the active ingredient. The expected antifungal activity (E in %) of the active ingredient combination was calculated according to the Colby equation (Colby, 1967): E=X+Y−[(X·Y)/100] wherein X and Y are the observed antifungal activities (in %) of the individual active ingredients X and Y, respectively. If the observed antifungal activity (O in %) of the combination exceeds the expected antifungal activity (E in %) of the combination and the resulting synergy factor O/E is thus >1.0, the combined application of the active ingredients leads to a synergistic antifungal effect.

Measured: Observed antifungal activity O (%)

C[C@@H]1C/C=C/C=C/C=C/C=C/[C@H](O[C@@H]2O[C@H](C)[C@@H](O)[C@H](N)[C@@H]2O)C[C@@H]2O[C@](O)(C[C@@H](O)C[C@H]3O[C@@H]3/C=C/C(=O)O1)C[C@H](O)[C@H]2C(=O)O [Natamycin, natamycin]
0%: Natamycin 1.25 ppm, 3 days incubation at 25° C. | Natamycin 1.25 ppm, 5 days incubation at 25° C. | Natamycin 1.25 ppm, 10 days incubation at 25° C. | Natamycin 1.25 ppm, 17 days incubation at 25° C.

c1ccc2[nH]c(-c3cscn3)nc2c1 [Thiabendazole, 4-(1H-1,3-benzodiazol-2-yl)-1,3-thiazole]
0%: Thiabendazole 0.5 ppm, 3 days incubation at 25° C. | Thiabendazole 1.0 ppm, 5 days incubation at 25° C. | Thiabendazole 1.25 ppm, 5 days incubation at 25° C. | Thiabendazole 1.25 ppm, 10 days incubation at 25° C. | Thiabendazole 1.5 ppm, 10 days incubation at 25° C. | Thiabendazole 1.5 ppm, 17 days incubation at 25° C.
